Blank lines part the entries; values can stand above or below the compound they belong to.
Experiments:
MDA-MB-231 [1] = assay: Cytotoxicity against human MDA-MB-231 cells incubated for 48 hrs by MTT assay; type: functional, cell-based; details: MDA-MB-231, 48 h
LNCaP C4-2B = assay: Cytotoxicity against human LNCaP C4-2B cells incubated for 48 hrs by MTT assay; type: functional, cell-based
HCT-15 = assay: Cytotoxicity against human HCT-15 cells incubated for 48 hrs by MTT assay; type: functional, cell-based; details: HCT-15, 48 h
PANC-1 = assay: Cytotoxicity against human Panc-1 cells incubated for 72 hrs by sulphorhodamine B assay; type: functional, cell-based; details: PANC-1, 72 h
SW1990 = assay: Antiproliferative activity against human SW1990 incubated for 72 hrs by sulphorhodamine B assay; type: functional, cell-based; details: SW1990, 72 h
MCF7 [2] = assay: Cytotoxicity against human MCF-7 cells incubated for 72 hrs by MTT assay; type: functional, cell-based; details: MCF7, 72 h
MDA-MB-231 [3] = assay: Cytotoxicity against human MDA-MB-231 cells incubated for 72 hrs by MTT assay; type: functional, cell-based; details: MDA-MB-231, 72 h
HCT-116 = assay: Antiproliferative activity against human HCT-116 cells incubated for 72 hrs by WST-1 assay; type: functional, cell-based; details: HCT-116, 72 h
P388 = assay: Cytotoxicity against mouse P388 cells incubated for 48 hrs by MTT assay; type: functional, cell-based; details: P388, 48 h
HepG2 = assay: Cytotoxicity against human HepG2 cells incubated for 48 hrs by alamarblue reagent based assay; type: functional, cell-based; details: HepG2, 48 h
MCF7 [4] = assay: Cytotoxicity against human MCF7 cells incubated for 48 hrs by alamarblue reagent based assay; type: functional, cell-based; details: MCF7, 48 h
MCF7 [5] = assay: Antiproliferative activity against human MCF7 cells incubated for 48 hrs by [3H]-thymidine incorporation assay; type: functional, cell-based
MDA-MB-435 = assay: Antiproliferative activity against human MDA-MB-435 cells incubated for 48 hrs by [3H]-thymidine incorporation assay; type: functional, cell-based
A549 = assay: Antiproliferative activity against human A549 cells incubated for 72 hrs by Sulforhodamine B assay; type: functional, cell-based; details: A549, 72 h
A-431 = assay: Antiproliferative activity against human A-431 cells incubated for 72 hrs by Sulforhodamine B assay; type: functional, cell-based; details: A-431, 72 h
[6] = Antiproliferative activity against human U87-MG cells incubated for 72 hrs by Sulforhodamine B assay; type: functional, cell-based; details: U-87 MG
[7] = Inhibition of PAFR in New Zealand rabbit platelets assessed as reduction in PAF-induced platelet aggregation measured within 5 mins by aggregometry analysis; type: tissue-based; details: Oryctolagus cuniculus

SMILES: CC1=C2C(=C[C@H]3[C@]4(C)CCCC(C)(C)[C@H]4CC[C@]34O[C@H]24)OC1=O
IC50 (MDA-MB-231 [1]): > 50000 nM | IC50 (LNCaP C4-2B): 10000 nM | IC50 (HCT-15): > 50000 nM

SMILES: CC1(C)CCC[C@]2(C)[C@@H]1CC[C@@]13O[C@@H]1C1=C(CO)C(=O)OC1=C[C@@H]23
IC50 (MDA-MB-231 [1]): 8800 nM | IC50 (LNCaP C4-2B): 2200 nM | IC50 (HCT-15): 13000 nM

SMILES: CC1(C)CCC[C@]2(C)[C@@H]1CC[C@@]13O[C@@H]1C1=C(CO)C(=O)O[C@]14O[C@@H]4[C@@H]23
IC50 (MDA-MB-231 [1]): > 50000 nM | IC50 (LNCaP C4-2B): 12000 nM | IC50 (HCT-15): > 50000 nM

SMILES: COC(=O)[C@@]12OC[C@]34[C@H]([C@@H](O)[C@@H]1O)[C@@]1(C)CC(=O)C(O)=C(C)[C@@H]1C[C@H]3OC(=O)[C@H](OC(=O)/C=C(\C)C(C)(C)OC(C)=O)[C@@H]24
IC50 (HCT-116): 50 nM | IC50 (MCF7 [2]): 63 nM | IC50 (MDA-MB-231 [3]): 88 nM

SMILES: CC(C)[C@H]1OC(=O)C=C2[C@@]13O[C@@H]3[C@H]1OC(=O)[C@@]3(C)CCC[C@@]2(C)[C@@H]13
IC50 (P388): 240 nM

SMILES: C=C1C(=O)O[C@@H]2C3O[C@]3(C)CC/C=C(\C)CC[C@@H]12 (stereo partly specified)
IC50 (HepG2): 17000 nM | IC50 (MCF7 [4]): 11000 nM

SMILES: C[C@H](CO)[C@H]1OC(=O)C=C2[C@@]13O[C@@H]3[C@H]1OC(=O)[C@@]3(C)[C@@H](O)CC[C@@]2(C)[C@@H]13
IC50 (A549): 1100 nM | IC50 (A-431): 4600 nM | IC50 [6]: 4000 nM

SMILES: CC1(C)O[C@H]2CC(=O)OC[C@@]23[C@H]1CC(=O)[C@@]1(C)C2=CC(=O)O[C@@H](c4ccoc4)[C@]2(C)CC[C@@H]13
IC50 (MCF7 [5]): 5500 nM | IC50 (MDA-MB-435): 1700 nM

The next lines start with results.

IC50 (SW1990): > 10000 nM
SMILES: COC(=O)[C@@]12OC[C@]34[C@H]([C@@H](O)[C@@H]1O)[C@@]1(C)C=C(O[C@@H]5O[C@H](CO)[C@@H](O)[C@H](O)[C@H]5O)C(=O)[C@@H](C)[C@@H]1C[C@H]3OC(=O)[C@H](OC(=O)/C=C(\C)C(C)C)[C@@H]24
IC50 (PANC-1): > 10000 nM

IC50 (SW1990): > 100000 nM
SMILES: COC(=O)[C@@]12OC[C@]34[C@H]([C@@H](O)[C@@H]1O)[C@@]1(C)C=C(O[C@@H]5O[C@H](CO)[C@@H](O)[C@H](O)[C@H]5O)C(=O)[C@@H](C)[C@@H]1C[C@H]3OC(=O)[C@H](OC(=O)CC(C)C)[C@@H]24
IC50 (PANC-1): > 100000 nM | IC50 (MCF7 [2]): > 50000 nM | IC50 (MDA-MB-231 [3]): > 50000 nM

IC50 (HCT-116): 250 nM
SMILES: COC(=O)[C@@]12OC[C@]34[C@H]([C@@H](O)[C@@H]1O)[C@@]1(C)CC(=O)C(O)=C(C)[C@@H]1C[C@H]3OC(=O)[C@H](OC(=O)/C=C(\C)C(C)(C)O)[C@@H]24

IC50 (HCT-116): 67 nM | IC50 (SW1990): 100 nM
SMILES: COC(=O)[C@@]12OC[C@]34[C@H]([C@@H](O)[C@@H]1O)[C@@]1(C)CC(=O)C(O)=C(C)[C@@H]1C[C@H]3OC(=O)[C@H](OC(=O)C=C(C)C)[C@@H]24
IC50 (PANC-1): 360 nM | IC50 (MCF7 [2]): 83 nM | IC50 (MDA-MB-231 [3]): 81 nM

IC50 (MCF7 [5]): 97 nM | IC50 (MDA-MB-435): 780 nM
SMILES: CC(=O)O[C@H]1CC(=O)OC(C)(C)[C@@H]2CC(=O)[C@]3(C)[C@H](CC[C@@]4(C)[C@H](c5ccoc5)OC(=O)[C@H]5O[C@]543)[C@@]12C

IC50 (A549): > 50000 nM | IC50 (A-431): > 50000 nM
SMILES: C[C@H](CO[C@@H]1O[C@H](CO)[C@@H](O)[C@H](O)[C@H]1O)[C@H]1OC(=O)C=C2[C@@]13O[C@@H]3[C@H]1OC(=O)[C@@]3(C)[C@@H](O)CC[C@@]2(C)[C@@H]13
IC50 [6]: > 50000 nM

IC50 [7]: 38 nM
SMILES: Cc1ccccc1Cn1cc(CO[C@H]2C(=O)O[C@H]3O[C@]45C(=O)O[C@@H]6[C@H](O)[C@@H](C(C)(C)C)[C@@]32[C@@]64[C@@H](O)[C@@H]2OC(=O)[C@@H](C)[C@@]25O)nn1

IC50 [7]: 71 nM
SMILES: Cc1ccccc1Cn1cc(CO[C@H]2C(=O)O[C@H]3O[C@]45C(=O)O[C@@H]6C[C@@H](C(C)(C)C)[C@@]32[C@@]64C[C@@H]2OC(=O)[C@@H](C)[C@@]25O)nn1

IC50 (MCF7 [5]): 10 nM | IC50 (MDA-MB-435): 150 nM
SMILES: CC1(C)OC(=O)C[C@H](O)[C@]2(C)[C@H]3CC[C@@]4(C)[C@H](c5ccoc5)OC(=O)[C@H]5O[C@]54[C@]3(C)C(=O)C[C@@H]12
